Where two headings read alike, the source gives them in different places. Marks after values point to notes of the source that are not given here.
Assays:
[1] = biological target: humanized recombinant DPP-IV (Homo sapiens (Human), UniProt P27487); experiment: DPP-IV activity inhibition test in vitro (DPPIV-Glo luminescence); assay type: biochemical
Experimental: (1) DPP-IV Activity Inhibition Tests In Vitro
DPP-IV could hydrolyze Gly-Pro-Aminoluciferin at room temperature to generate Aminoluciferin, which could produce “glow type” luminescent signals in a luciferase reaction system provided by a DPPIV-Glo™ protease test kit, and the strength of the luminescent signals was in direct proportion to the enzyme activity of DPP-IV.
2.1 humanized recombinant DPP-IV: SIGMA product, article number D3446-10UG.
2.2 DPPIV-Glo™ protease detection kit: Promega product, article number G8351.
3.2 Diluting dipeptidyl peptidase IV (Sigma) to 0.2 ng/ml solution with 10 mM Tris-HCl (pH 8.0), adding the samples to be detected in, per well 25 μl. […] Experimental Results

[2] = biological target: humanized recombinant DPP9 (Homo sapiens (Human), UniProt Q86TI2); experiment: Drug selectivity experiment in vitro, DPP9; assay type: biochemical
[3] = test system: obese mice (B6.Cg-Lepob/JNju); experiment: Glucose tolerance test of obese mice; assay type: in vivo, mouse; set-up: AUC0-120 min: unit not given beside the values
Experimental: (§1) 2. Experimental method: normal mice, obese mice and diabetic mice were used for studying glucose tolerance tests Experimental process of OGTT (Oral Glucose Tolerance Test): fasting for 6 hours before the test begins, 60 min after drug administration, glucose was administrated by gavage (drug concentration 0.6 mg/ml, administration volume 5 ml/kg) (2 g/kg glucose was administrated to diabetic mice; 2 g/kg glucose was administrated to obese mice; and 5 g/kg glucose was administrated to normal mice), blood glucose values at 0 min, 15 min, 30 min, 45 min, 60 min and 120 min are respectively determined after glucose administration, […]

[4] = test system: diabetic mice (B6.BKS(D)-Leprdb/JNju); experiment: Glucose tolerance test of diabetic mice (Table 5); assay type: in vivo, mouse; set-up: AUC0-120 min: unit not given beside the values
Experimental: as §1

hERG potassium channel = hERG potassium channel (Homo sapiens (Human), UniProt Q12809); experiment: hERG toxicity, manual patch clamp in CHO cells stably transfected with hERG; assay type: cell-based
Description: 1. Test method: testing the effect of the compounds on hERG […] in stable CHO cell lines transfected hERG […] by manual patch clamp method, and then calculating IC50 value of the compounds to hERG. Conventional Patch-Clamp was a technology that has been disclosed, was the most important technical means for studying ion channels and was universally recognized as the “gold standard” for ion channel researches and was the most accurate method for measuring ion channel. It was applicable to study the action mechanism of the effect of compound and the ion channel, and also could be used for toxicity evaluation and structure optimization of candidate drugs in the process of new drugs. In cardiomyocytes, human Ether-a-go-go Related Gene (hERG) coded potassium channel mediates a delayed rectification potassium current (IKr), IKr inhibition was the most important mechanism leading to QT interval prolongation by drugs. hERG could be inhibited by compounds of diversified structures, due to its specific molecular structure. […] The effects of compounds on hERG could be tested and relevant IC50 could be determined by conventional patch-clamp, using CHO cell lines that had been stably transfected hERG potassium channel.

[5] = Pharmacokinetics experiments in CD-1 mice; assay type: in vivo, mouse; settings: for concentration at 0.5 h: 0.500 h; for MRT last: read-out: MRT0-last; for concentration at 0.25 h: 0.250 h; for Plasma drug concentration (ng/ml): LLOQ 3 ng/ml
Experimental: Six healthy CD-1 mice of 7-10 weeks old were randomly separated into two groups. 2 mg/kg and 5 mg/kg TSL-0319 were administrated respectively by intravenous injection and by gavage (2 mg/ml for intravenous injection, made into transparent solution with solution of DMSO/PEG400/H2O=20/60/20; 5 mg/ml for gavage; made into transparent solution with solution of PEG400 (Tween80/H2O=40/10/50); fasting for 12 hours but free drinking before administration; blood was taken from the great saphenous vein or submaxillary veins by time points (time points for taking blood of intravenous injection: 0 h, 0.0833 h, 0.250 h, 0.500 h, 1.00 h, 2.00 h, 4.00 h, 8.00 h, 12.00 h and 24.00 h; time points for taking blood of gavage: 0 h, 0.250 h, 0.50 h, 1.00 h, 2.00 h, 4.00 h, 8.00 h, 12.00 h and 24.0 h) before and after administration, lower limit of quantitation, LLOQ was set at 3 ng/ml.

[6] = CD-1, mouse, plasma, oral, gavage 5 mg/kg, read-out: Plasma drug concentration
[7] = CD-1, mouse, plasma, po, gavage 5 mg/kg
[8] = CD-1, mouse, plasma, intravenous injection 2 mg/kg
[9] = CD-1, mouse, plasma, intravenous injection 2 mg/kg, read-out: Plasma drug concentration

Chain of humanized recombinant DPP9 (Q86TI2 whole entry): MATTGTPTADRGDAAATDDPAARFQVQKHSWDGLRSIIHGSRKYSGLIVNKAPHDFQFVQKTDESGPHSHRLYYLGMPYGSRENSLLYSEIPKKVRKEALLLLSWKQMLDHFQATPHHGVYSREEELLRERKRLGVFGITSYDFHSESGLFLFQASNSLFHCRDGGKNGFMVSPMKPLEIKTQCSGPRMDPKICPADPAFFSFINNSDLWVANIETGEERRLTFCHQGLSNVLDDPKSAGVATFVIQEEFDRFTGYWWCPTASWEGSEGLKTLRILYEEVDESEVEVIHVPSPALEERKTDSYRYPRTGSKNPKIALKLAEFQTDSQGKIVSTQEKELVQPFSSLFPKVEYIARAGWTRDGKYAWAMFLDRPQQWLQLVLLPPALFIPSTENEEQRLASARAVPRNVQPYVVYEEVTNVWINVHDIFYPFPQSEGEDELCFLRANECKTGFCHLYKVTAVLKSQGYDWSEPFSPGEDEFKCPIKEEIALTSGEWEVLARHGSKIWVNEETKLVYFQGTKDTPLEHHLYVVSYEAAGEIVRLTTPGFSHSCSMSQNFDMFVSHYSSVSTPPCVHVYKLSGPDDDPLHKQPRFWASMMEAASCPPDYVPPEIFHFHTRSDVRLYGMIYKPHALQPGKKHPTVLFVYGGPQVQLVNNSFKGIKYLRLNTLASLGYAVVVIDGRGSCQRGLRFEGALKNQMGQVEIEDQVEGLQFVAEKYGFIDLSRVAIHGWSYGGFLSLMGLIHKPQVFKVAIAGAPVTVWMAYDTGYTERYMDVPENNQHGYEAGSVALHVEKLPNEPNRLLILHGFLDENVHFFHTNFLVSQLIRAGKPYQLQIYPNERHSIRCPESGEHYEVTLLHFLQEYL
Chain of humanized recombinant DPP-IV (P27487 whole entry): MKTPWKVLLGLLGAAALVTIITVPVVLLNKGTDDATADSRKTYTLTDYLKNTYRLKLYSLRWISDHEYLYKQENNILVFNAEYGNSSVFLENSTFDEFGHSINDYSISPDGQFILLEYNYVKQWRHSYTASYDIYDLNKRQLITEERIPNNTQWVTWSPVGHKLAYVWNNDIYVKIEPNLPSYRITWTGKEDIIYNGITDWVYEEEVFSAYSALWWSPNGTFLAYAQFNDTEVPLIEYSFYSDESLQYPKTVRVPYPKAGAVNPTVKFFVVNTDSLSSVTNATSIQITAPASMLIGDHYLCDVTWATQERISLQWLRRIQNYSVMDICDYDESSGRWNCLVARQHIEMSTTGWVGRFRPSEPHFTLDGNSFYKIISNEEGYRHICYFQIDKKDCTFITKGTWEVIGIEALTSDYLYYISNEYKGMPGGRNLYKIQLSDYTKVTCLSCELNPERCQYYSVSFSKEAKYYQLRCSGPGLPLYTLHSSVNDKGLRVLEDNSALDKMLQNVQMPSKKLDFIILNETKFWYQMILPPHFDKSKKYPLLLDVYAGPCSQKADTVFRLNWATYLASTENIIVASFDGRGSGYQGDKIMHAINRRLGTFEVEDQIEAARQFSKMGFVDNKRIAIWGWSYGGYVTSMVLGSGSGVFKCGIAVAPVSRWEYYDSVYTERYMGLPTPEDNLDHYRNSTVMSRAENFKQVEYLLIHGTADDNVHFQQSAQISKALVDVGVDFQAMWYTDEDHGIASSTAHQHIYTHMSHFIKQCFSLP
Chain of hERG potassium channel (Q12809 whole entry): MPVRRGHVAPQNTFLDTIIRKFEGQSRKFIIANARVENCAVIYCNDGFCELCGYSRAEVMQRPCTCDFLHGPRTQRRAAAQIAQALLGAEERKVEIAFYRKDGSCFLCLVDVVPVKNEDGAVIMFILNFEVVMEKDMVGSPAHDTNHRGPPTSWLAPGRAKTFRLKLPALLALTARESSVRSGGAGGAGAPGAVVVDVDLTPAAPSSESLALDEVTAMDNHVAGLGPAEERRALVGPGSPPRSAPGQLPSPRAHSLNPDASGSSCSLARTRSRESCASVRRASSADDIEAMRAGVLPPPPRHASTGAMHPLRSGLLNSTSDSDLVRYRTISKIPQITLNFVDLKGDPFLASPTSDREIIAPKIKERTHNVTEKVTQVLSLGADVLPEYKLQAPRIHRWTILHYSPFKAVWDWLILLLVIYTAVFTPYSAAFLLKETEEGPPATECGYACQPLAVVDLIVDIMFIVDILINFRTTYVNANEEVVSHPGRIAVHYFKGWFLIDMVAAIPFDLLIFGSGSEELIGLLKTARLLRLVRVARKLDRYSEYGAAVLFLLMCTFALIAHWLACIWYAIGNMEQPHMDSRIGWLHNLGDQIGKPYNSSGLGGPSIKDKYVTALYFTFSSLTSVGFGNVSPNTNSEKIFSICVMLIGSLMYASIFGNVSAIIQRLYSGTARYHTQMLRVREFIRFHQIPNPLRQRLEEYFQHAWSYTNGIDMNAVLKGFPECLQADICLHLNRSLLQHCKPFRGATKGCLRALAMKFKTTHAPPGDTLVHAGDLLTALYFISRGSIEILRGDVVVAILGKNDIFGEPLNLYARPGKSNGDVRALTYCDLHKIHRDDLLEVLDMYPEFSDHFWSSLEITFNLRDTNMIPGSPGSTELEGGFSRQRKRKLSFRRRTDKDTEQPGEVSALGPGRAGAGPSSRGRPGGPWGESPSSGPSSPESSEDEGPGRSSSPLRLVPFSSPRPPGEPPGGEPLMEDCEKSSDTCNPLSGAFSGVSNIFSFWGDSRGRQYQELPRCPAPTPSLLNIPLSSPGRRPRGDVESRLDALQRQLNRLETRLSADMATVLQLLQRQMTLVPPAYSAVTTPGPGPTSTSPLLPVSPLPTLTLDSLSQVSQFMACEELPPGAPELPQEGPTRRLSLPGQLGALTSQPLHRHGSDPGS

CC#CCn1c(N2CCC[C@@H](N)C2)nc2c1c(=O)n(Cc1nccnc1C#N)c(=O)n2C [Compound I-3, 1-[(3-cyano-pyrazine-2-yl)methyl]-3-methyl-7-(2-butyne-1-yl)-8-[(R)-3-amino-piperidine-1-yl]-xanthine]
IC50 ([1]; DPP-IV, Table 1, read-out: IC50): 0.08 nM
IC50 ([1]; Table 2, read-out: DPP4 IC50): 0.08 nM
DPP-IV activity compared with linagliptin ([1]; in words): better activity than linagliptin
IC50 [2]: > 100000 nM
Selectivity (DPP9 column) ([2]; DPP9 versus DPP4): > 1250000
inhibition effect to DPP9 ([2]; in words): no inhibition effect
Blood glucose concentration 0 min ([3]; obese mice B6.Cg-Lepob/JNju, drug at -60 min (0.6 mg/ml, 5 ml/kg), 2 g/kg glucose at 0 min): 10.90 mmol/L
hypoglycemic effect ([3]; obese mice, in words): good hypoglycemic effect
Blood glucose concentration 15 min ([3]; obese mice, 15 min after glucose): 32.88 mmol/L
Blood glucose concentration 30 min ([3]; obese mice, 30 min after glucose): 25.93 mmol/L
Blood glucose concentration 45 min ([3]; obese mice, 45 min after glucose): 17.03** mmol/L
Blood glucose concentration 60 min ([3]; obese mice, 60 min after glucose): 13.88** mmol/L
Blood glucose concentration 120 min ([3]; obese mice, 120 min after glucose): 9.53* mmol/L
AUC0-120 min ([3]; obese mice, blood glucose AUC): 2025*
hypoglycemic effect ([4]; Table 5 mice (diabetic), in words): good hypoglycemic effect
Blood glucose concentration 0 min ([4]; diabetic mice B6.BKS(D)-Leprdb/JNju, drug at -60 min (0.6 mg/ml, 5 ml/kg), 2 g/kg glucose at 0 min): 11.84 mmol/L
Blood glucose concentration 15 min ([4]; diabetic mice, 15 min after glucose): 32.23 mmol/L
Blood glucose concentration 30 min ([4]; diabetic mice, 30 min after glucose): 22.80* mmol/L
Blood glucose concentration 45 min ([4]; diabetic mice, 45 min after glucose): 15.70*** mmol/L
Blood glucose concentration 60 min ([4]; diabetic mice, 60 min after glucose): 13.80*** mmol/L
Blood glucose concentration 120 min ([4]; diabetic mice, 120 min after glucose): 8.75** mmol/L
AUC0-120 min ([4]; diabetic mice, blood glucose AUC): 1930**
inhibition rate to hERG (hERG potassium channel; 1 μM concentration): 0%
IC50 (hERG potassium channel; manual patch clamp, CHO cells): 79800 nM
Cmax ([5]; CD-1, mouse, blood, oral, dosage 5 mg/kg, read-out: Cmax in mice): 200 to 500 nM
concentration at 0.5 h [5, 6]: 123 ± 30.2 ng/mL
concentration at 1 h [5, 6]: 183 ± 19.1 ng/mL
concentration at 2 h [5, 6]: 211 ± 83 ng/mL
concentration at 4 h [5, 6]: 145 ± 40.9 ng/mL
concentration at 8 h ([5]; CD-1, mouse, plasma, oral, gavage 5 mg/kg, 8.00 h, read-out: Plasma drug concentration): 8.03 ± 3.71 ng/mL
AUC(0-inf) [5, 7]: 858 ± 185 ng·h/mL
AUC(0-t) [5, 7]: 844 ± 181 ng·h/mL
Tmax [5, 7]: 1.33 ± 0.577 h
half-life [5, 7]: 1.37 ± 0.317 h
MRT inf ([5]; CD-1, mouse, plasma, po, gavage 5 mg/kg, read-out: MRT0-inf): 3 ± 0.111 h
MRT last [5, 7]: 2.87 ± 0.0589 h
AUC(0-inf) [5, 8]: 567 ± 56.1 ng·h/mL
AUC(0-t) [5, 8]: 555 ± 54.7 ng·h/mL
clearance [5, 8]: 59.1 ± 5.63 mL/min/kg
concentration at 0.25 h [5, 9]: 529 ± 93.4 ng/mL
concentration at 0.5 h [5, 9]: 344 ± 32.7 ng/mL
concentration at 1 h [5, 9]: 161 ± 21.2 ng/mL
concentration at 2 h [5, 9]: 47.5 ± 13.6 ng/mL
concentration at 4 h [5, 9]: 11.9 ± 2.24 ng/mL
MRT ([5]; CD-1, mouse, plasma, intravenous injection 2 mg/kg, read-out: MRT0-int): 0.953 ± 0.123 h
MRT last [5, 8]: 0.836 ± 0.0919 h
Vd ([5]; CD-1, mouse, plasma, intravenous injection 2 mg/kg, read-out: Vdss): 3.41 ± 0.745 L/kg
Plasma drug concentration (ng/ml) ([5]; gavage 5 mg/kg, 12.00 h): BQL
Plasma drug concentration (ng/ml) ([5]; gavage 5 mg/kg, 24.00 h): BQL
Plasma drug concentration (ng/ml) ([5]; intravenous injection 2 mg/kg, 8.00 h): BQL
Plasma drug concentration (ng/ml) ([5]; intravenous injection 2 mg/kg, 12.00 h): BQL
Plasma drug concentration (ng/ml) ([5]; intravenous injection 2 mg/kg, 24.00 h): BQL
bioavailability ([5]; mouse, plasma, oral, gavage 5 mg/kg versus intravenous 2 mg/kg, CD-1 mice): 60.5%
concentration at 0.25 h ([5]; mouse, plasma, oral, gavage 5 mg/kg, CD-1 mice, read-out: Plasma drug concentration): 48 ± 27.9 ng/mL
Cmax ([5]; mouse, plasma, po, gavage 5 mg/kg, CD-1 mice, read-out: Cmax): 223 ± 68.1 ng/mL
half-life ([5]; mouse, plasma, intravenous injection 2 mg/kg, CD-1 mice): 1.09 ± 0.623 h
concentration at 0.5 min ([5]; mouse, plasma, intravenous injection 2 mg/kg, CD-1 mice, 0.5 min, read-out: Plasma drug concentration): 759 ± 133 ng/mL

From patent US10358449B2, “Xanthine derivative” (priority 2015, dated 2019)
